Test results published in patent US9302999B2, “Substituted triazoles as herbicides” (E. I. DU PONT DE NEMOURS AND COMPANY, priority 2012, dated 2016).

Experiments:
Type in all cases: in vivo
rice (Oryza sativa) = assay: Test C flooded paddy test: rice; details: scale 0 to 100 (0 no effect, 100 complete control)
Procedure, shortened: (§1)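 Greenhouse plants treated at the 2-leaf stage by dosing the flood water (3 cm depth, maintained) were compared with controls after 13 to 15 days and rated 0 to 100, where 100 means complete control; a dash marks no test result.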

[1] = system: foxtail, giant (giant foxtail, Setaria faberii); assay: Test A pre-/postemergence: foxtail, giant; details: for Foxtail, Giant plant response rating: Postemergence; for Plant response rating, Foxtail, Giant: Preemergence
Procedure, shortened: (§2)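 Soil medium was loam blended with sand; treatments pre- and postemergence were applied concurrently, postemergence at one- to two-leaf stage. Approximately ten days in greenhouse preceded visual comparison with untreated controls, scored 0 (no effect) to 100 (complete control).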

[2] = system: barnyardgrass (Echinochloa crus-galli); assay: Test C flooded paddy test: barnyardgrass; details: scale 0 to 100 (0 no effect, 100 complete control)
Procedure, shortened: as §1

corn (Zea mays) = assay: Test A pre-/postemergence: corn; details: for Corn plant response rating: Postemergence; for Plant response rating, Corn: Preemergence
Procedure, shortened: as §2

[3] = system: morningglory (Ipomoea spp.); assay: Test A pre-/postemergence: morningglory; details: for Morningglory plant response rating: Postemergence; for Plant response rating, Morningglory: Preemergence
Procedure, shortened: as §2

[4] = system: barnyardgrass (Echinochloa crus-galli); assay: Test A pre-/postemergence: barnyardgrass; details: for Barnyardgrass plant response rating: Postemergence; for Plant response rating, Barnyardgrass: Preemergence
Procedure, shortened: as §2

[5] = system: pigweed (Amaranthus retroflexus); assay: Test A pre-/postemergence: pigweed; details: for Pigweed plant response rating: Postemergence; for Plant response rating, Pigweed: Preemergence
Procedure, shortened: as §2

[6] = system: crabgrass, large (large crabgrass, Digitaria sanguinalis); assay: Test A pre-/postemergence: crabgrass, large; details: for Crabgrass, Large plant response rating: Postemergence; for Plant response rating, Crabgrass, Large: Preemergence
Procedure, shortened: as §2

[7] = system: velvetleaf (Abutilon theophrasti); assay: Test A pre-/postemergence: velvetleaf; details: for Velvetleaf plant response rating: Postemergence; for Plant response rating, Velvetleaf: Preemergence
Procedure, shortened: as §2

[8] = system: wheat (Triticum aestivum); assay: Test A pre-/postemergence: wheat; details: for Wheat plant response rating: Postemergence; for Plant response rating, Wheat: Preemergence
Procedure, shortened: as §2

[9] = system: ducksalad (Heteranthera limosa); assay: Test C flooded paddy test: ducksalad; details: scale 0 to 100 (0 no effect, 100 complete control)
Procedure, shortened: as §1

[10] = system: sedge, umbrella (small-flower umbrella sedge, Cyperus difformis); assay: Test C flooded paddy test: sedge, umbrella; details: scale 0 to 100 (0 no effect, 100 complete control)
Procedure, shortened: as §1

[11] = Flood (flooded paddy test), 125 g ai/ha, visual rating after 13 to 15 days
[12] = Flood (flooded paddy test), 250 g ai/ha, visual rating after 13 to 15 days
[13] = 125 g ai/ha, 0 to 100 scale, 0 is no effect, 100 is complete control
[14] = 500 g ai/ha, visual rating on 0 to 100 scale (0 no effect, 100 complete control), approximately ten days
[15] = 125 g ai/ha, 0 to 100 scale where 0 is no effect and 100 is complete control
[16] = 500 g ai/ha, 0 to 100 scale, 0 is no effect, 100 is complete control
[17] = 125 g ai/ha, 0 to 100 scale (0 no effect, 100 complete control)

Cc1nn(-c2ccccc2I)nc1C(=O)c1cccc(C(F)(F)F)c1 [Compound 91]
30: Pigweed plant response rating [5, 14]
10: Foxtail, Giant plant response rating [1, 14] | Corn plant response rating (corn (Zea mays); [13]) | Corn plant response rating (corn (Zea mays); [14]) | Barnyardgrass plant response rating [4, 14] | Pigweed plant response rating [5, 13] | Crabgrass, Large plant response rating [6, 14] | Velvetleaf plant response rating [7, 14]
0: Plant response rating, Rice (rice (Oryza sativa); [11]) | Plant response rating, Rice (rice (Oryza sativa); [12]) | Plant response rating, Rice (rice (Oryza sativa); Flood, 31 g ai/ha) | Plant response rating, Rice (rice (Oryza sativa); Flood, 62 g ai/ha) | Foxtail, Giant plant response rating [1, 13] | Plant response rating, Foxtail, Giant [1, 15] | Plant response rating, Foxtail, Giant [1, 16] | Plant response rating, Barnyardgrass [2, 11] | Plant response rating, Barnyardgrass [2, 12] | Plant response rating, Barnyardgrass ([2]; Flood, 31 g ai/ha) | Plant response rating, Barnyardgrass ([2]; Flood, 62 g ai/ha) | Plant response rating, Corn (corn (Zea mays); [17]) | Plant response rating, Corn (corn (Zea mays); [16]) | Morningglory plant response rating [3, 13] | Morningglory plant response rating [3, 14] | Plant response rating, Morningglory [3, 15] | Plant response rating, Morningglory [3, 16] | Barnyardgrass plant response rating [4, 13] | Plant response rating, Barnyardgrass [4, 17] | Plant response rating, Barnyardgrass [4, 16] | Plant response rating, Pigweed [5, 15] | Plant response rating, Pigweed [5, 16] | Crabgrass, Large plant response rating [6, 13] | Plant response rating, Crabgrass, Large [6, 17] | Plant response rating, Crabgrass, Large [6, 16] | Velvetleaf plant response rating [7, 13] | Plant response rating, Velvetleaf [7, 15] | Plant response rating, Velvetleaf [7, 16] | Wheat plant response rating [8, 13] | Wheat plant response rating [8, 14] | Plant response rating, Wheat [8, 15] | Plant response rating, Wheat [8, 16] | Plant response rating, Ducksalad [9, 11] | Plant response rating, Ducksalad [9, 12] | Plant response rating, Ducksalad ([9]; Flood, 31 g ai/ha) | Plant response rating, Ducksalad ([9]; Flood, 62 g ai/ha) | Plant response rating, Sedge, Umbrella [10, 11] | Plant response rating, Sedge, Umbrella [10, 12] | Plant response rating, Sedge, Umbrella ([10]; Flood, 31 g ai/ha) | Plant response rating, Sedge, Umbrella ([10]; Flood, 62 g ai/ha)

CSc1ccc(-n2nc(C)c(C(=O)c3cccc(C(F)(F)F)c3)n2)cc1 [Compound 93]
10: Foxtail, Giant plant response rating [1, 13] | Foxtail, Giant plant response rating [1, 14] | Corn plant response rating (corn (Zea mays); [13]) | Corn plant response rating (corn (Zea mays); [14]) | Morningglory plant response rating [3, 14] | Barnyardgrass plant response rating [4, 14] | Pigweed plant response rating [5, 13] | Crabgrass, Large plant response rating [6, 13] | Velvetleaf plant response rating [7, 13]
20: Pigweed plant response rating [5, 14] | Crabgrass, Large plant response rating [6, 14] | Velvetleaf plant response rating [7, 14]
0: Plant response rating, Rice (rice (Oryza sativa); [11]) | Plant response rating, Rice (rice (Oryza sativa); [12]) | Plant response rating, Rice (rice (Oryza sativa); Flood, 31 g ai/ha) | Plant response rating, Rice (rice (Oryza sativa); Flood, 62 g ai/ha) | Plant response rating, Foxtail, Giant [1, 15] | Plant response rating, Foxtail, Giant [1, 16] | Plant response rating, Barnyardgrass [2, 11] | Plant response rating, Barnyardgrass [2, 12] | Plant response rating, Barnyardgrass ([2]; Flood, 31 g ai/ha) | Plant response rating, Barnyardgrass ([2]; Flood, 62 g ai/ha) | Plant response rating, Corn (corn (Zea mays); [17]) | Plant response rating, Corn (corn (Zea mays); [16]) | Morningglory plant response rating [3, 13] | Plant response rating, Morningglory [3, 15] | Plant response rating, Morningglory [3, 16] | Barnyardgrass plant response rating [4, 13] | Plant response rating, Barnyardgrass [4, 17] | Plant response rating, Barnyardgrass [4, 16] | Plant response rating, Pigweed [5, 15] | Plant response rating, Pigweed [5, 16] | Plant response rating, Crabgrass, Large [6, 17] | Plant response rating, Crabgrass, Large [6, 16] | Plant response rating, Velvetleaf [7, 15] | Plant response rating, Velvetleaf [7, 16] | Wheat plant response rating [8, 13] | Wheat plant response rating [8, 14] | Plant response rating, Wheat [8, 15] | Plant response rating, Wheat [8, 16] | Plant response rating, Ducksalad [9, 11] | Plant response rating, Ducksalad [9, 12] | Plant response rating, Ducksalad ([9]; Flood, 31 g ai/ha) | Plant response rating, Ducksalad ([9]; Flood, 62 g ai/ha) | Plant response rating, Sedge, Umbrella [10, 11] | Plant response rating, Sedge, Umbrella [10, 12] | Plant response rating, Sedge, Umbrella ([10]; Flood, 31 g ai/ha) | Plant response rating, Sedge, Umbrella ([10]; Flood, 62 g ai/ha)
